# Source: patent US10849881B2, “Octahydro-cyclobuta[1,2-c;3,4-c′]dipyrrol-2-yl” (Hoffmann-La Roche Inc., priority 2013, dated 2020)
# Target: ATX (human His-tagged) (Homo sapiens (Human), UniProt Q13822)
# Assay: Human ATX enzyme inhibition assay (fluorescence quenching, MR121 substrate)
# Assay type: biochemical
# Details: 30 nM ATX, 1 μM MR121 substrate, 30° C., pH 8.0
# Summary of the method: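 Fluorescence quenching assay with MR121/tryptophan-labelled substrate analogue in Tris-HCl buffer (140 mM NaCl, CaCl2, MgCl2, 0.01% Triton X-100, pH 8.0). Serially diluted compounds were preincubated 15 min at 30 °C with 30 nM ATX (final), then 1 µM substrate (final) added and incubated 15 min at 30 °C.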
row,SMILES,IC50 [nM]
1,"O=C(c1cnc(OCC(F)(F)F)c(Cl)c1)N1C[C@@H]2[C@H](C1)[C@H]1CN(C(=O)c3ccc4[nH]nnc4c3)C[C@@H]21 [Example 1.109, (1H-benzotriazol-5-yl)-{(3aS,3bS,6aR,6bR)-5-[5-chloro-6-(2,2,2-trifluoro-ethoxy)-pyridine-3-carbonyl]-octahydro-cyclobuta[1,2-c;3,4-c′]dipyrrol-2-yl}-methanone]",301
2,"O=C(c1ccc2[nH]nnc2c1)N1C[C@@H]2[C@H](C1)[C@H]1CN(C(=O)c3ccc(OCC(F)(F)F)cn3)C[C@@H]21 [Example 1.101, (1H-benzotriazol-5-yl)-{(3aS,3bR,6aS,6bR)-5-[5-(2,2,2-trifluoro-ethoxy)-pyridine-2-carbonyl]-octahydro-cyclobuta[1,2-c;3,4-c′]dipyrrol-2-yl}-methanone]",4430
3,"O=C(c1ccc2[nH]nnc2c1)N1C[C@@H]2[C@H](C1)[C@H]1CN(C(=O)C3CCc4ccccc4C3)C[C@@H]21 (stereo partly drawn) [Example 1.031, [(3aS,3bR,6aS,6bR)-5-(1H-benzotriazole-5-carbonyl)-octahydro-cyclobuta[1,2-c;3,4-c′]dipyrrol-2-yl]-(1,2,3,4-tetrahydro-naphthalen-2-yl)-methanone]",224
4,"Cc1oc(-c2ccc(Cl)cc2)nc1C(=O)N1C[C@@H]2[C@H]3CN(C(=O)c4ccc5[nH]nnc5c4)C[C@H]3[C@@H]2C1 [Example 1.030, [(3aR,3bS,6aR,6bS)-5-(1H-benzotriazole-5-carbonyl)-octahydro-cyclobuta[1,2-c;3,4-c′]dipyrrol-2-yl]-[2-(4-chloro-phenyl)-5-methyl-oxazol-4-yl]-methanone]",104
5,"O=C(c1ccc2cc(Cl)ccc2c1)N1C[C@@H]2[C@H](C1)[C@H]1CN(C(=O)c3ccc4[nH]nnc4c3)C[C@@H]21 [Example 1, [(3aS,3bS,6aR,6bR)-5-(1H-Benzotriazole-5-carbonyl)-octahydro-cyclobuta[1,2-c;3,4-c′]dipyrrol-2-yl]-(6-chloro-naphthalen-2-yl)-methanone]",34
6,"Cn1c(C(=O)N2C[C@@H]3[C@H]4CN(C(=O)c5ccc6[nH]nnc6c5)C[C@H]4[C@@H]3C2)cc2ccccc21 [Example 1.024, [(3aR,3bS,6aR,6bS)-5-(1H-benzotriazole-5-carbonyl)-octahydro-cyclobuta[1,2-c;3,4-c′]dipyrrol-2-yl]-(1-methyl-1H-indol-2-yl)-methanone]",377

# The next compounds have a lower IC50 than those just listed; values first:
row,IC50 [nM],SMILES
1,12.5,"CCOc1cc(C(=O)N2C[C@@H]3[C@H]4CN(C(=O)c5ccc6[nH]nnc6c5)C[C@H]4[C@@H]3C2)nc2cc(Cl)ccc12 [Example 1.076, [(3aR,3bS,6aR,6bS)-5-(1H-benzotriazole-5-carbonyl)-octahydro-cyclobuta [1,2-c;3,4-c′]dipyrrol-2-yl]-(7-chloro-4-ethoxy-quinolin-2-yl)-methanone]"
2,11,"O=C(c1ccc(-c2ccc(Cl)cc2)nc1)N1C[C@@H]2[C@H](C1)[C@H]1CN(C(=O)c3ccc4[nH]nnc4c3)C[C@@H]21 [Example 1.045, [(3aS,3bS,6aR,6bR)-5-(1H-benzotriazole-5-carbonyl)-octahydro-cyclobuta[1,2-c;3,4-c′]dipyrrol-2-yl]-[6-(4-chloro-phenyl)-pyridin-3-yl]-methanone]"
3,1.3,"CC(C)Oc1cc(C(=O)N2C[C@@H]3[C@H](C2)[C@H]2CN(C(=O)[C@@H]4CCc5[nH]nnc5C4)C[C@@H]32)cc2ccccc12 [Example 1.059, (4-isopropoxy-naphthalen-2-yl)-[(3aR,3bS,6aR,6bS)-5-((R)-4,5,6,7-tetrahydro-1H-benzotriazole-5-carbonyl)-octahydro-cyclobuta[1,2-c;3,4-c′]dipyrrol-2-yl]-methanone]"
4,6,"O=C(c1ccc2[nH]nnc2c1)N1C[C@@H]2[C@H](C1)[C@H]1CN(C(=O)c3ccc(-c4ccc(Cl)cc4)cn3)C[C@@H]21 [Example 1.072, [(3aR,3bS,6aR,6bS)-5-(1H-benzotriazole-5-carbonyl)-octahydro-cyclobuta[1,2-c;3,4-c′]dipyrrol-2-yl]-[5-(4-chloro-phenyl)-pyridin-2-yl]-methanone]"
